Results taken from patent US12213970B2, “Pyridinyl sulfonamide derivatives, pharmaceutical compositions and uses thereof” (Boehringer Ingelheim International GmbH, priority 2018, dated 2025).
Where a name gives a salt, the structure may show the parent alone. Read-outs that look alike come from different tables or passages of the source.

Key:
[1] = target: T1, human AOC3 enzyme (recombinant CHO cells) (Homo sapiens, UniProt Q16853); assay: AOC3 biochemical assay (MAO-Glo), human enzyme
T1 construct: expressed in transfected cells; host or cells: CHO cells
T1 sequence (Q16853 1-763): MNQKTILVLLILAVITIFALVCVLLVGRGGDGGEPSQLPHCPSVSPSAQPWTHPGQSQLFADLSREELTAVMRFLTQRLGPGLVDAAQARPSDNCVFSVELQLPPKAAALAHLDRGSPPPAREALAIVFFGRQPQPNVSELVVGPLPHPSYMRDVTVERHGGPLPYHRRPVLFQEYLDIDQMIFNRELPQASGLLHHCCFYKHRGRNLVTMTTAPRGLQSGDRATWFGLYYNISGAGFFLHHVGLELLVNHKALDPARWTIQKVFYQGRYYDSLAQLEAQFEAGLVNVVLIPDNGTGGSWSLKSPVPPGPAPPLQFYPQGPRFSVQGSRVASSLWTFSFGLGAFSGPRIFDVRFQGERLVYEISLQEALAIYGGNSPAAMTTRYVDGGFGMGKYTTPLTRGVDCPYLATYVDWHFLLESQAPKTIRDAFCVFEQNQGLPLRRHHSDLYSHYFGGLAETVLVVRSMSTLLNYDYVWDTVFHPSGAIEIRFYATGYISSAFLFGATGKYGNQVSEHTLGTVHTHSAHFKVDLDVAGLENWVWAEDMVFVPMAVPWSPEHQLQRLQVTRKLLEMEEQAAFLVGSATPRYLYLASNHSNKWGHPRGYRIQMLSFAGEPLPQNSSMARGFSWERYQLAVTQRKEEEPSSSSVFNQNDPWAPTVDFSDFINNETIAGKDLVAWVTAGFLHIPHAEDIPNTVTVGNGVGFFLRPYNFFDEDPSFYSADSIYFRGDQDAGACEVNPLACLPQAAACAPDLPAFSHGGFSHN
Description: The MAO-Glo™ Assay (commercially available from PROMEGA, #V1402) provides a sensitive method for the measurement of monoamine oxidase (MAO) activity (Valley, M. P. et al., 2006, Anal. Biochem. 359: 238-246) from a variety of tissues, biofluids or recombinant expressed or purified enzymes. As substrate a derivate of the beetle luciferin ((4S)-4,5-dihydro-2-(6-hydroxybenzothiazolyl)-4-thiazole-carboxylic acid) is used, which is oxidized at a primary amine moiety. After a spontaneous elimination and a catalyzed esterase reaction, the turnover of luciferin by the luciferase is recorded as a signal of AOC3 activity.
An aliquot of 3 μL of the compound dilution is added to a 384 well plate (Optiplate, PS, flat bottom, white, PERKIN ELMER, #6007290) with a final DMSO concentration of 6.6%. Recombinant CHO cells, overexpressing the human (1500 cells/well), mouse (1000 cells/well) or rat (500 cells/well) AOC3 enzyme are diluted in reaction buffer and added in a volume of 15 μL to the wells. After incubation for 20 minutes at 37° C., 2 μL of MAO substrate (dissolved in DMSO at 16 mM, adjusted to assay concentration in reaction buffer to a final assay concentration of 20 μM) is added and further incubated for 60 minutes at 37° C. The turnover of the substrate is determined by the addition of 20 μL of the detection-mix which was generated by the addition of reconstitution buffer with esterase (PROMEGA, #V1402) to the luciferin detection reagent (PROMEGA, #V1402). After an incubation period of 20 minutes, the luminescent signal is measured with Envision 2104 Multilabel Reader (PERKIN ELMER).

AOC1 = target: T2, AOC1 (Homo sapiens, UniProt P19801); assay: AOC1 biochemical assay (Amplex Red)
T2 construct: purchased R&D Systems 8297-AO-010
T2 sequence (P19801 20-751): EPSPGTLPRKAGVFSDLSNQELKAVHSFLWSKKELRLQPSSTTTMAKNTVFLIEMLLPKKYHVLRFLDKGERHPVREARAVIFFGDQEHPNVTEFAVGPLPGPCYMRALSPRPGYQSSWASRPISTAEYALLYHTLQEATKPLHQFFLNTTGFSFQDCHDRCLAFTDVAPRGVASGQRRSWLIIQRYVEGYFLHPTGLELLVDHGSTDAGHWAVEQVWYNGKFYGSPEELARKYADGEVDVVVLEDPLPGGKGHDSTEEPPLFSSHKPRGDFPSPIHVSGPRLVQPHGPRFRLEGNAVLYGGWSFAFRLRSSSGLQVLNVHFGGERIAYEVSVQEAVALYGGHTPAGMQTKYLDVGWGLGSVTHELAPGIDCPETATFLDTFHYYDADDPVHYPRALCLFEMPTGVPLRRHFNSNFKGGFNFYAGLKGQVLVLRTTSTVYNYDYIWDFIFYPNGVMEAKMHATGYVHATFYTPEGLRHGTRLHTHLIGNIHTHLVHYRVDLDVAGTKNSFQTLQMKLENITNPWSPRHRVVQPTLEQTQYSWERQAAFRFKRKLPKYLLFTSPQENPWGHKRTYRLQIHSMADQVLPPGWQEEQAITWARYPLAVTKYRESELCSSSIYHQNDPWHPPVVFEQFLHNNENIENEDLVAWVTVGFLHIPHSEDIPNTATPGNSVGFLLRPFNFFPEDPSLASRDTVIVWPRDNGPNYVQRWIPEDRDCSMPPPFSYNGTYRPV
Protocol: The Amplex® Red Assay (available from Thermo Fisher Scientific) provides a sensitive method for the detection of H2O2 generated during enzymatic reactions like the amine oxidation catalyzed by AOC1. The assay reagent is a colorless substrate (N-acetyl-3,7-dihydroxyphenoxazine) that reacts in a 1:1 stoichiometry with hydrogen peroxide (H2O2) to produce the fluorescent dye resorufin (7-hydroxyphenoxazin-3-one, excitation/emission maxima=570/585 nm).
An aliquot of 3 μL of the compound dilution is added to a 384 well plate (Optiplate, PS, flat bottom F, black, PERKIN ELMER, #6007270) in a DMSO concentration of 6.6%.
An AOC1 enzyme aliquot (#8297-AO-010, R&D Systems) is thawed on ice, diluted in reaction buffer and added in a volume of 7 μL to the wells to give a final assay concentration of 1 ng/well. After incubation of inhibitor and enzyme for 30 minutes at 37° C., the enzymatic reaction is started with the addition of 10 μL of Amplex® Red reaction mix (final assay concentration: 100 mM sodiumphosphate, 120 μM Amplex® Red reagent (#A22177 Molecular Probes), 1.5 U/mL Horseradish Peroxidase (#P8375 Sigma-Aldrich), 200 μM putrescine (#P7505 Sigma-Alrdich), 0.05% Pluronic F-127 (#P3000MP Sigma-Aldrich), pH 7.4, 37° C.).
After an incubation for 30 minutes at 37° C. the turnover of the substrate is determined directly (or after the addition of an excess of an amine-oxidase inhibitor) with a fluorescence reader (Ex 540 nm/Em 590 nm) like Envision 2104 Multilabel Reader (PERKIN ELMER).

[2] = comparison table, read-out: IC50 AOC3
[3] = comparison table, read-out: IC50 AOC1

Compound	IC50 ([1]; read-out: AOC3 IC50) [nM]	IC50 (AOC1; read-out: AOC1 IC50) [nM]	also measured
COC(=O)[C@H]1[C@@H]2CN(S(=O)(=O)c3ccc(OC/C(=C\F)CN)nc3)C[C@@H]21 [Example 35, trans-3-[6-((Z)-2-Aminomethyl-3-fluoro-allyloxy)-pyridine-3-sulfonyl]-3-aza-bicyclo[3.1.0]hexane-6-carboxylic acid methyl ester trifluoroacetate]	3	1840	
NC/C(=C/F)COc1ccc(S(=O)(=O)N2CC[C@H](C(N)=O)C2)cn1 [Example 39]	6	909	
COC1CCN(S(=O)(=O)c2ccc(OC/C(=C\F)CN)nc2)CC1 [Example 40]	4	781	
CC1(O)CCN(S(=O)(=O)c2ccc(OC/C(=C\F)CN)nc2)CC1 [Example 41]	10	133	
NC/C(=C/F)COc1ccc(S(=O)(=O)N2CCC(O)(C(F)(F)F)CC2)cn1 [Example 42]	6	2360	
NC/C(=C/F)COc1ccc(S(=O)(=O)N2CC[C@H](O)C2)cn1 [Example 43, (S)-1-[6-(Z)-2-Aminomethyl-3-fluoro-allyloxy]-pyridine-3-sulfonyl]-pyrrolidin-3-ol trifluoroacetate]	10		IC50 (AOC1; read-out: IC50 AOC1): 964 nM; factor less active on AOC1 than the comparison compound (AOC1; versus the Z isomer of example 6 of WO 2018/027892): 14
NC/C(=C/F)COc1ccc(S(=O)(=O)N2C[C@@H]3[C@H](C2)[C@H]3C(=O)O)cn1 [Example 45, trans-3-[6-((Z)-2-Aminomethyl-3-fluoro-allyloxy)-pyridine-3-sulfonyl]-3-aza-bicyclo[3.1.0]hexane-6-carboxylic acid trifluoroacetate]	67	37600	
NC/C(=C/F)COc1ccc(S(=O)(=O)N2CCC(C(=O)O)CC2)cn1 [Example 46]	493	> 50000	
NC/C(=C/F)COc1ccc(S(=O)(=O)N2CCC(CC(N)=O)CC2)cn1 [Example 50]	8	5310	
NC/C(=C/F)COc1ccc(S(=O)(=O)N2CCC(CC(=O)NCCO)CC2)cn1 [Example 52]	17	15100	
COC1CN(S(=O)(=O)c2ccc(OC/C(=C\F)CN)cc2)C1 [Reference compound A, reference compound]			IC50 [1, 2]: 3 nM; IC50 (AOC1; [3]): 1750 nM
NC/C(=C/F)COc1ccc(S(=O)(=O)N2CC[C@H](O)C2)cc1 [Reference compound B, reference compound]			IC50 [1, 2]: 6 nM; IC50 (AOC1; [3]): 1210 nM
NC/C(=C/F)COc1cnc(N2CC[C@H](O)C2)nc1 [Z isomer of example 6 of WO 2018/027892, reference compound]			IC50 [1, 2]: 7 nM; IC50 (AOC1; read-out: IC50 AOC1): 70 nM
NC/C(=C/F)COc1cnc(N2CCC(O)CC2)nc1 [reference compound]			IC50 [1, 2]: 4 nM; IC50 (AOC1; [3]): 66 nM

More lines, main results first:

IC50 ([1]; read-out: AOC3 IC50) [nM]	IC50 (AOC1; read-out: AOC1 IC50) [nM]	Compound	also measured
4	1380	COC(=O)C1(C)CCN(S(=O)(=O)c2ccc(OC/C(=C\F)CN)nc2)CC1 [Example 36]	
10	9880	CNC(=O)C1CCN(S(=O)(=O)c2ccc(OC/C(=C\F)CN)nc2)CC1 [Example 37, trifluoroacetate]	
3	235	NC/C(=C/F)COc1ccc(S(=O)(=O)N2CCCCC2)cn1 [Example 38]	
110	> 50000	NC/C(=C/F)COc1ccc(S(=O)(=O)N2CCC(CC(=O)O)CC2)cn1 [Example 44, trifluoroacetate]	
548	> 50000	CC1(C(=O)O)CCN(S(=O)(=O)c2ccc(OC/C(=C\F)CN)nc2)CC1 [Example 47]	
33	13000	CC1(C(=O)NC2CCOCC2)CCN(S(=O)(=O)c2ccc(OC/C(=C\F)CN)nc2)CC1 [Example 48, 1-[6-((Z)-2-Aminomethyl-3-fluoro-allyloxy)-pyridine-3-sulfonyl]-4-methyl-piperidine-4-carboxylic acid (tetrahydropyran-4-yl)-amide trifluoroacetate]	
8	553	CC1(C(N)=O)CCN(S(=O)(=O)c2ccc(OC/C(=C\F)CN)nc2)CC1 [Example 49]	
12	10300	CC(F)(F)CNC(=O)CC1CCN(S(=O)(=O)c2ccc(OC/C(=C\F)CN)nc2)CC1 [Example 51]	
17	14600	CC1(C(=O)NCCF)CCN(S(=O)(=O)c2ccc(OC/C(=C\F)CN)nc2)CC1 [Example 53]	
19	10500	COCCNC(=O)CC1CCN(S(=O)(=O)c2ccc(OC/C(=C\F)CN)nc2)CC1 [Example 54]	
17	27100	NC/C(=C/F)COc1ccc(S(=O)(=O)N2CCC(CC(=O)N3CC(O)C3)CC2)cn1 [Example 55]	
21	11500	CC1(C(=O)NC2CC2)CCN(S(=O)(=O)c2ccc(OC/C(=C\F)CN)nc2)CC1 [Example 56]	
